US3984393A, “Aminoglycoside antibiotics” (The Upjohn Company, priority 1975, dated 1976)
Values after ≈ are worked out from the molar mass of the structure shown.

Columns and labels:
S. marcescens UC 131 = assay: standard microplate test in BHI Agar (MIC), S. marcescens UC 131; type: cell-based; conditions: Serratia marcescens, UC131, 20 h; S. marcescens UC 131; retest table, group (9), (11), (7α), neamine control; read-out: Minimum Inhibitory Concentration
Procedure: (§1) Compounds were also tested in a standard microplate test in Brain Heart Infusion (BHI) Agar, at a concentration of 1 mg/ml. Incubation is at 37° and end points are read at 20 hours. Brain Heart Infusion Agar (supplied by Difco Laboratories, Detroit, Michigan, U.S.A.) has the following composition:
(§2) Compounds (7β), (7α) and (9) were tested again along with compounds (11) and (14β) against a neamine control using the same conditions as given above.

P. morgani UC 3186 = assay: standard microplate test in BHI Agar (MIC), P. morgani UC 3186; type: cell-based; conditions: 20 h; P. morgani UC 3186; retest table, group (9), (11), (7α), neamine control; read-out: Minimum Inhibitory Concentration
Procedure: as §1, §2

S. hemolyticus UC 152 = assay: standard microplate test in BHI Agar (MIC), S. hemolyticus UC 152; type: cell-based, Streptococcus hemolyticus; conditions: Streptococcus pyogenes, UC152, 20 h; S. hemolyticus UC 152; retest table, group (9), (11), (7α), neamine control; read-out: Minimum Inhibitory Concentration
Procedure: as §1, §2

P. vulgaris UC 93 = assay: standard microplate test in BHI Agar (MIC), P. vulgaris UC 93; type: cell-based; conditions: Proteus vulgaris, UC93, 20 h, P. vulgaris UC 93; retest table, group (9), (11), (7α), neamine control; read-out: Minimum Inhibitory Concentration
Procedure: as §1, §2

P. rettgeri UC 339 = assay: standard microplate test in BHI Agar (MIC), P. rettgeri UC 339; type: cell-based; conditions: Providencia rettgeri, UC339, 20 h; P. rettgeri UC 339; retest table, group (9), (11), (7α), neamine control; read-out: Minimum Inhibitory Concentration
Procedure: as §1, §2

K. pneumoniae UC 58 = assay: standard microplate test in BHI Agar (MIC), K. pneumoniae UC 58; type: cell-based; conditions: Klebsiella pneumoniae, UC58, 20 h; K. pneumoniae UC 58; retest table, group (9), (11), (7α), neamine control; read-out: Minimum Inhibitory Concentration
Procedure: as §1, §2

St. faecalis UC 694 = assay: standard microplate test in BHI Agar (MIC), St. faecalis UC 694; type: cell-based; conditions: Enterococcus faecalis, UC694, 20 h, S. faecalis UC 694; retest table, group (9), (11), (7α), neamine control; read-out: Minimum Inhibitory Concentration
Procedure: as §1, §2

E. coli UC 45 = assay: standard microplate test in BHI Agar (MIC), E. coli UC 45; type: cell-based; conditions: Escherichia coli, UC45, 20 h, E. coli UC 45; retest table, group (9), (11), (7α), neamine control; read-out: Minimum Inhibitory Concentration
Procedure: as §1, §2

B. cereus = assay: standard disc plate assay, 12.5 mm paper discs (zone of inhibition), B. cereus; type: cell-based, Bacillus cereus
From the text: The novel intermediates, disclosed herein, are useful to make novel aminoglycoside antibiotics. These novel aminoglycoside antibiotics are antibacterially active, and, thus, they can be used in various environments to eradicate or control sensitive bacteria. Following are in vitro antibacterial test results for representative compounds of the subject invention. The results were obtained with a standard disc plate assay using 12.5 mm paper discs.

D. pneumoniae UC 41 = assay: standard microplate test in BHI Agar (MIC), D. pneumoniae UC 41; type: cell-based; conditions: Streptococcus pneumoniae, UC41, 20 h, D. pneumoniae UC 41; retest table, group (9), (11), (7α), neamine control; read-out: Minimum Inhibitory Concentration
Procedure: as §1, §2

Ps. aeruginosa UC 95 = assay: standard microplate test in BHI Agar (MIC), Ps. aeruginosa UC 95; type: cell-based; conditions: Pseudomonas aeruginosa, UC95, 20 h, Ps. aeruginosa UC 95; retest table, group (9), (11), (7α), neamine control; read-out: Minimum Inhibitory Concentration
Procedure: as §1, §2

P. mirabilis A-63 = assay: standard microplate test in BHI Agar (MIC), P. mirabilis A-63; type: cell-based; conditions: Proteus mirabilis, A63, 20 h; P. mirabilis A-63; retest table, group (9), (11), (7α), neamine control; read-out: Minimum Inhibitory Concentration
Procedure: as §1, §2

S. aureus UC 76 = assay: standard microplate test in BHI Agar (MIC), S. aureus UC 76; type: cell-based, Staphylococcus aureus; conditions: Staphylococcus aureus, UC76, 20 h, S. aureus UC 76; retest table, group (9), (11), (7α), neamine control; read-out: Minimum Inhibitory Concentration
Procedure: as §1, §2

S. flexneri UC 143 = assay: standard microplate test in BHI Agar (MIC), S. flexneri UC 143; type: cell-based; conditions: Shigella flexneri, UC143, 20 h, retest table, group (9), (11), (7α), neamine control, read-out: Minimum Inhibitory Concentration
Procedure: as §1, §2

S. typhi TG-3 = assay: standard microplate test in BHI Agar (MIC), S. typhi TG-3; type: cell-based; conditions: Salmonella enterica, 20 h, read-out: Minimum Inhibitory Concentration
Procedure: as §1, §2

## NC[C@H]1O[C@H](O[C@H]2[C@H](O)[C@@H](O)[C@H](N)C[C@@H]2N)[C@H](N)[C@@H](O[C@@H]2O[C@H](CO)[C@@H](O)[C@H](O)[C@H]2O)[C@@H]1O [(11), 3'-O-(β-D-glucopyranosyl)neamine]
S. marcescens UC 131
  MIC: 1000 µg/mL (≈ 2060 µM)
P. morgani UC 3186
  MIC: 1000 µg/mL (≈ 2060 µM)
S. hemolyticus UC 152
  MIC: 1000 µg/mL (≈ 2060 µM)
P. vulgaris UC 93
  MIC: 1000 µg/mL (≈ 2060 µM)
P. rettgeri UC 339
  MIC: 1000 µg/mL (≈ 2060 µM)
K. pneumoniae UC 58
  MIC: 1000 µg/mL (≈ 2060 µM)
St. faecalis UC 694
  MIC: 1000 µg/mL (≈ 2060 µM)
E. coli UC 45
  MIC: 1000 µg/mL (≈ 2060 µM)
B. cereus; Bacillus cereus, B. cereus, 10 mg/ml
  zone of inhibition at 10000 µg/mL: 16 mm
B. cereus; conclusion in words from the above results
  active against Bacillus cereus: active
D. pneumoniae UC 41
  MIC: 1000 µg/mL (≈ 2060 µM)
Ps. aeruginosa UC 95
  MIC: 1000 µg/mL (≈ 2060 µM)
P. mirabilis A-63
  MIC: 1000 µg/mL (≈ 2060 µM)
S. aureus UC 76
  MIC: 1000 µg/mL (≈ 2060 µM)
S. flexneri UC 143
  MIC: 1000 µg/mL (≈ 2060 µM)
S. typhi TG-3
  MIC: 1000 µg/mL (≈ 2060 µM)
